Measurements as given in US12258328B2, “6-membered heteroaryl-containing aminopyridine compounds as EGFR inhibitors” (YUHAN CORPORATION, priority 2021, dated 2025).
Where two headings read alike, the source gives them in different places.

Legend:
EGFR L858R/C797S = EGFR L858R/C797S (Homo sapiens, UniProt P00533, C797S/L858R); assay: Biochemical EGFR kinase assay (Lance Ultra TR-FRET), double mutant L858R/C797S
Method: (§1) Biochemical EGFR kinase assays were conducted using Lance Ultra time-resolved fluorescence resonance energy transfer (TR-FRET) technology from Perkin-Elmer. Compounds of the invention were initially diluted to 20 mM in 100% DMSO for storage and made into kinase buffer solution to create a compound concentration ranging from 0.003 μM and 10 μM.
(§2) Each kinase reactions were incubated at room temperature for 1 hour and then stopped by the addition of 4 μL of stop solution (10 mM EDTA). The specific Europium-labeled-anti-phosphopeptide antibody (PerkinElmer, AD0069) diluted in LANCE detection buffer was then added to a final concentration of 2 nM. After 60 minutes incubation at room temperature the LANCE signal was measured on an EnVision Multilabel Reader (Perkin-Elmer). Excitation wavelength was set at 320 nm and emission monitored at 615 nm (donor) and 665 nm (acceptor). The IC50 values were determined using GraphPad prism software (GraphPad Software, Inc., San Diego, CA, USA).

EGFR L858R/T790M/C797S = EGFR L858R/T790M/C797S (Homo sapiens, UniProt P00533, C797S/L858R/T790M); assay: Biochemical EGFR kinase assay (Lance Ultra TR-FRET), triple mutant L858R/T790M/C797S
Method: as §1, §2

EGFR wildtype = EGFR wildtype (Homo sapiens, UniProt P00533); assay: Biochemical EGFR kinase assay (Lance Ultra TR-FRET), wildtype
Method: as §1, §2

EGFR del19/T790M/C797S = EGFR del19/T790M/C797S (Homo sapiens, UniProt P00533, C797S/DEL746-750/T790M); assay: Biochemical EGFR kinase assay (Lance Ultra TR-FRET), triple mutant del19/T790M/C797S
Method: as §1, §2

EGFR del19/C797S = EGFR del19/C797S (Homo sapiens, UniProt P00533, C797S/DEL746-750); assay: Biochemical EGFR kinase assay (Lance Ultra TR-FRET), double mutant del19/C797S
Method: as §1, §2

[1] = IC50 L858R/C797S (nM) 100 μM ATP, 100 μM ATP
[2] = Km ATP, read-out: IC50 L858R/C797S (nM) Km ATP
[3] = IC50 L858R/T790M/C797S (nM) 100 μM ATP, 100 μM ATP
[4] = Km ATP, read-out: IC50 L858R/T790M/C797S (nM) Km ATP
[5] = IC50 WT (nM) 100 μM ATP, 100 μM ATP
[6] = Km ATP, read-out: IC50 WT (nM) Km ATP
[7] = IC50 del19/T790M/C797S (nM) 100 μM ATP, 100 μM ATP
[8] = Km ATP, read-out: IC50 del19/T790M/C797S (nM) Km ATP
[9] = IC50 del19/C797S (nM) 100 μM ATP, 100 μM ATP
[10] = Km ATP, read-out: IC50 del19/C797S (nM) Km ATP
[11] = ATP at Km, read-out: IC50 L858R/C797S, Km ATP
[12] = ATP at Km, read-out: IC50 L858R/T790M/C797S, Km ATP
[13] = IC50 L858R/T790M/C797S, 100 μM ATP
[14] = ATP at Km, read-out: IC50 WT, Km ATP
[15] = ATP at Km, read-out: IC50 del19/T790M/C797S, Km ATP
[16] = IC50 del19/T790M/C797S, 100 μM ATP
[17] = ATP at Km, read-out: IC50 del19/C797S, Km ATP

Chain of EGFR L858R/T790M/C797S (P00533 25-1210 T790M/C797S/L858R): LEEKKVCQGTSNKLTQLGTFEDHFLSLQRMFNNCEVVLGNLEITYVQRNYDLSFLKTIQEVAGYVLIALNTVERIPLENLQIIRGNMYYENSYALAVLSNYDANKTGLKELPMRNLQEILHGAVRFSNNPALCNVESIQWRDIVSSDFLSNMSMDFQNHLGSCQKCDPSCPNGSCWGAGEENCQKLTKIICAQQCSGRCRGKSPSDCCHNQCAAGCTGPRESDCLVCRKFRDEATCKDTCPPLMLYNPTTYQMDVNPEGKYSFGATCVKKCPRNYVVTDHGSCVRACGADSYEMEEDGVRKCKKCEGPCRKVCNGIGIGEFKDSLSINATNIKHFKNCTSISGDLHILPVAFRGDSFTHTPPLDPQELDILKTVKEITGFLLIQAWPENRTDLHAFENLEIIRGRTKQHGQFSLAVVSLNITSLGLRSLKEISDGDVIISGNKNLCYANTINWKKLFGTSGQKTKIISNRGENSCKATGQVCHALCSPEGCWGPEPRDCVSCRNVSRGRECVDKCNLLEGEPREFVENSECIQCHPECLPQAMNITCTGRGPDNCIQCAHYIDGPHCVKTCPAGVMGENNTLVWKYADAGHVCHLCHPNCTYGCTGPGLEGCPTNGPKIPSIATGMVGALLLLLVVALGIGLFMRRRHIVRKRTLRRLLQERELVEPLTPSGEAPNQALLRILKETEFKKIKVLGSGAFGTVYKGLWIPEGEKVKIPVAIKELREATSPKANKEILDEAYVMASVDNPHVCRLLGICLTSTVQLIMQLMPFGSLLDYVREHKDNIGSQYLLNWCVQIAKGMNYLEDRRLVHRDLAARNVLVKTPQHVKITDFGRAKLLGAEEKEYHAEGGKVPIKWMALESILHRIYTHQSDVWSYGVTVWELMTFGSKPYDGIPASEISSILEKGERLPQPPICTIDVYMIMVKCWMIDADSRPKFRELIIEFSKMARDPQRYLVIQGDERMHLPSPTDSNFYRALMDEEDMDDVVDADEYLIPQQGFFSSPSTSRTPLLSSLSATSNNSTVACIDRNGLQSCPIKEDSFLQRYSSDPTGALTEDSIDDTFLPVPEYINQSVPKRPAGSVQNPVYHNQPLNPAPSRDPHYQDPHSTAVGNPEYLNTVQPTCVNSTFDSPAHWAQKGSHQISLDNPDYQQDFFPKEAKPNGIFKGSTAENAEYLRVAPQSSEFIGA
Chain of EGFR del19/T790M/C797S (P00533 with tags, fused parts or gaps DEL746-750/T790M/C797S): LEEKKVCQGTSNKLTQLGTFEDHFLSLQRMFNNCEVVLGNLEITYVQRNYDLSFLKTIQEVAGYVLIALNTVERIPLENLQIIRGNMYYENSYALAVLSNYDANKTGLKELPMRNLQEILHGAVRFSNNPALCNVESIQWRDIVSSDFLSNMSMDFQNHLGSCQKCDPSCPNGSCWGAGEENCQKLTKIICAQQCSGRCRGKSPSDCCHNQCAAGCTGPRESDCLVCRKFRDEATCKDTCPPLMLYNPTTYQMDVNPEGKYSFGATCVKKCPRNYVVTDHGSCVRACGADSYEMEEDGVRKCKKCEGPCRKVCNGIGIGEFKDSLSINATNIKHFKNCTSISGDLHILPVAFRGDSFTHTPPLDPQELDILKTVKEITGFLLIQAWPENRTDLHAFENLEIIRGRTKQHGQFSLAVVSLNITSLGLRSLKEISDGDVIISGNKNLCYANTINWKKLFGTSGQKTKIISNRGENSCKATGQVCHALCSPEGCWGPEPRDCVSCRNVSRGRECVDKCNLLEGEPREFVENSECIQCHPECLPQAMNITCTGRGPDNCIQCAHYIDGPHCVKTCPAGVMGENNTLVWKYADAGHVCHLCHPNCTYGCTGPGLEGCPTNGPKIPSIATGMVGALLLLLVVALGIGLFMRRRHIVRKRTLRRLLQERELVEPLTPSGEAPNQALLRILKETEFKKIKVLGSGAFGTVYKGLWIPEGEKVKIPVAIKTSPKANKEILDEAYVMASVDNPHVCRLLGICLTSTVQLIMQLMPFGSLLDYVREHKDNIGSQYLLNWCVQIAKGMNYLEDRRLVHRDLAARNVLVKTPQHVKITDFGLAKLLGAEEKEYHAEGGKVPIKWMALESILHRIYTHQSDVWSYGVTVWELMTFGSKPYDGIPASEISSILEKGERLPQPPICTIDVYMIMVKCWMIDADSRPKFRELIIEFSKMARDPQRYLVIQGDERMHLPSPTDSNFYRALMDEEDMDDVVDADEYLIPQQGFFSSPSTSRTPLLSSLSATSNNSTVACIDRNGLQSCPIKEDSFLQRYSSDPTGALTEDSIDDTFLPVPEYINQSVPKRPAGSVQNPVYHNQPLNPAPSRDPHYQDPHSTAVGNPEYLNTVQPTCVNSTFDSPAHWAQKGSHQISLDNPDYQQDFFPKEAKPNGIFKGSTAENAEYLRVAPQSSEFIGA
Chain of EGFR L858R/C797S (P00533 25-1210 C797S/L858R): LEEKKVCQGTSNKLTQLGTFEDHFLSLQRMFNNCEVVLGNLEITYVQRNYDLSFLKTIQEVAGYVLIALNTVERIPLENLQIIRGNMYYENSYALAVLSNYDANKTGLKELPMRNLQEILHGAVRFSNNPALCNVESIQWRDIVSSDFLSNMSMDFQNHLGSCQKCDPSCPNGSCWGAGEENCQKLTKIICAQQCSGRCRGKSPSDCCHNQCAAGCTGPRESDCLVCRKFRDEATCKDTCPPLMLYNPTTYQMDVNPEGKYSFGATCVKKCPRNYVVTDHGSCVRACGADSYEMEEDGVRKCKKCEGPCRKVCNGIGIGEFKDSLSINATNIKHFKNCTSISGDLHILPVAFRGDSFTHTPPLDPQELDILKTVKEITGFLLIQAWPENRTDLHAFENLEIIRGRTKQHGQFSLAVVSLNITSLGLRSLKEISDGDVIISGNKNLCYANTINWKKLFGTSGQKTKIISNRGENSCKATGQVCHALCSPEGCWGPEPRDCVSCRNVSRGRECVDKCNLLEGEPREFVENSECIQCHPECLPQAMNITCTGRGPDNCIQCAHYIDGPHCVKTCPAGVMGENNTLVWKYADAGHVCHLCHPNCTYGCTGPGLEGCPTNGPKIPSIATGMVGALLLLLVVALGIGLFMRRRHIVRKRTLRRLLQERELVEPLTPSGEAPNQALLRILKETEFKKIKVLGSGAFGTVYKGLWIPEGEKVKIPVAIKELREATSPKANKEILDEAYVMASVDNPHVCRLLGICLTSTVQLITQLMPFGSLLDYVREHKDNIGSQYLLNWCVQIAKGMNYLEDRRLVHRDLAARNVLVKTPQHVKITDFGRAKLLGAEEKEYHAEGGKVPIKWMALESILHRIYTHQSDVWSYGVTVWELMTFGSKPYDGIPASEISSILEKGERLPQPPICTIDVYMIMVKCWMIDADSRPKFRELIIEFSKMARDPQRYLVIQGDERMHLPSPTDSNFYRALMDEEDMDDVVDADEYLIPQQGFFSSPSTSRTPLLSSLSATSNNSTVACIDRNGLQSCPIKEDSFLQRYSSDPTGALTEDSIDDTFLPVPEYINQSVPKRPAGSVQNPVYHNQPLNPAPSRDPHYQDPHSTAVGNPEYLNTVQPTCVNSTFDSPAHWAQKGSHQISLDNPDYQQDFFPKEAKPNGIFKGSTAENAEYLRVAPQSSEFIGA
Chain of EGFR wildtype (P00533 25-1210): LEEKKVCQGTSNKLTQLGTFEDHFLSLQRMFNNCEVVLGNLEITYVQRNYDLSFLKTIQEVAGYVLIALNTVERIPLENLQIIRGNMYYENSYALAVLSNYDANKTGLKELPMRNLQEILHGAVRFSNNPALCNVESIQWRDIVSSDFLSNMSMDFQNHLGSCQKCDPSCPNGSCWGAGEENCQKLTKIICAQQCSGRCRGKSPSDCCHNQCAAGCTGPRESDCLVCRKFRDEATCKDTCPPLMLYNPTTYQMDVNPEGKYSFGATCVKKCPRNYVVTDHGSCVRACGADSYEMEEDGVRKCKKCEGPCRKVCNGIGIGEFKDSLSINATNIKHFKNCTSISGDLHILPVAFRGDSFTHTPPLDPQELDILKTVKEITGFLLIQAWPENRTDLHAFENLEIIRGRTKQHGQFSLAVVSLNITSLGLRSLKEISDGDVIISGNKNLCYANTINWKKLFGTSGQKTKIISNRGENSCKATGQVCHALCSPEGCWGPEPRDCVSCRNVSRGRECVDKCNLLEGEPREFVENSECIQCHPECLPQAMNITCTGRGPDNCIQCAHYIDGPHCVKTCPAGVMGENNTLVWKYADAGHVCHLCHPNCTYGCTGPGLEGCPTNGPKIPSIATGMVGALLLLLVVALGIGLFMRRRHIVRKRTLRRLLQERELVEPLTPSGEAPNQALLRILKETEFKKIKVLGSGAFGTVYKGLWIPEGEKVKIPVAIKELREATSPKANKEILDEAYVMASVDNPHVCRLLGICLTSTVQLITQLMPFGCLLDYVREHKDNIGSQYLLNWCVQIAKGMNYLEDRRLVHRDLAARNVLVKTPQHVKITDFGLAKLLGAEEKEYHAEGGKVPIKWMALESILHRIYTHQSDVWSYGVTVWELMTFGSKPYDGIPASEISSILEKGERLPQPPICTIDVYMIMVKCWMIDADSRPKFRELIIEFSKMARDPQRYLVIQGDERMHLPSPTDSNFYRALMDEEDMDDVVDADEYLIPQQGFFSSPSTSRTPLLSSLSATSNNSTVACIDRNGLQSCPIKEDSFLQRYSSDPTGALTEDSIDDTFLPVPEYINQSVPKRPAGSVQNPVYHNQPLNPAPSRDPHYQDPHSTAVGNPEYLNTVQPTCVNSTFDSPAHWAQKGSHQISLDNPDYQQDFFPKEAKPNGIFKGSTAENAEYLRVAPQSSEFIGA

Row | Structure (SMILES) | IC50 (EGFR L858R/C797S; [1]) [nM] | IC50 (EGFR L858R/C797S; [2]) [nM] | IC50 (EGFR L858R/T790M/C797S; [3]) [nM] | IC50 (EGFR L858R/T790M/C797S; [4]) [nM] | IC50 (EGFR wildtype; [5]) [nM] | IC50 (EGFR wildtype; [6]) [nM] | IC50 (EGFR del19/T790M/C797S; [7]) [nM] | IC50 (EGFR del19/T790M/C797S; [8]) [nM] | IC50 (EGFR del19/C797S; [9]) [nM] | IC50 (EGFR del19/C797S; [10]) [nM] | IC50 (EGFR L858R/C797S; [11]) [nM] | IC50 (EGFR L858R/C797S; IC50 L858R/C797S, 100 μM ATP) [nM] | IC50 (EGFR L858R/T790M/C797S; [12]) [nM] | IC50 (EGFR L858R/T790M/C797S; [13]) [nM] | IC50 (EGFR wildtype; [14]) [nM] | IC50 (EGFR wildtype; IC50 WT, 100 μM ATP) [nM] | IC50 (EGFR del19/T790M/C797S; [15]) [nM] | IC50 (EGFR del19/T790M/C797S; [16]) [nM] | IC50 (EGFR del19/C797S; [17]) [nM] | IC50 (EGFR del19/C797S; IC50 del19/C797S, 100 μM ATP) [nM]
1 | CC(C)(O)c1cnc(-c2cnc(Nc3ccnc(-c4cnn(S(=O)(=O)C5CC5)c4)n3)cc2N[C@H]2CC[C@@H](CO)CC2)cn1 [Example 119, 2-(5-(6-((2-(1-(Cyclopropylsulfonyl)-1H-pyrazol-4-yl)pyrimidin-4-yl)amino)-4-(((1s,4s)-4-(hydroxymethyl)cyclohexyl)amino)pyridin-3-yl)pyrazin-2-yl)propan-2-ol] | 0.3 | 0.03 | 0.2 | 0.1 | 108 | 1 | 0.1 | 0.1 | 0.2 | 0.1 |  |  |  |  |  |  |  |  |  | 
2 | O=S(=O)(C1CC1)n1cc(-c2nccc(Nc3cc(N[C@H]4CC[C@@H](CO)CC4)c(-c4cc(N5CCC(F)(F)CC5)ccn4)cn3)n2)cn1 [Example 100, ((1s,4s)-4-((6′-((2-(1-(Cyclopropylsulfonyl)-1H-pyrazol-4-yl)pyrimidin-4-yl)amino)-4-(4,4-difluoropiperidin-1-yl)-[2,3′-bipyridin]-4′-yl)amino)cyclohexyl)methanol] | 24.9 | 12.9 | 5.3 | 1.3 | 7220 | 12.7 | 8.1 | 6.4 | 10.8 | 6.5 |  |  |  |  |  |  |  |  |  | 
3 | CN(C)C[C@H]1CC[C@@H](Nc2cc(Nc3ccnc(-c4cnn(S(=O)(=O)C5CC5)c4)n3)ncc2-c2cc(C(C)(C)O)c(F)cn2)CC1 [Example 107, 2-(6′-((2-(1-(Cyclopropylsulfonyl)-1H-pyrazol-4-yl)pyrimidin-4-yl)amino)-4′-(((1s,4s)-4-((dimethylamino)methyl)cyclohexyl)amino)-5-fluoro-[2,3′-bipyridin]-4-yl)propan-2-ol] | 1.8 | 0.1 | 0.2 | 0.2 | 327 | 0.4 | 0.4 | 0.3 | 0.5 | 0.1 |  |  |  |  |  |  |  |  |  | 
4 | C[C@]1(O)CC[C@@H](Nc2cc(Nc3ccnc(-c4cnn(S(=O)(=O)C5CC5)c4)n3)ncc2-c2ccc(C(F)(F)F)c(F)n2)CC1 [Example 181, (1s,4s)-4-((6′-((2-(1-(Cyclopropylsulfonyl)-1H-pyrazol-4-yl)pyrimidin-4-yl)amino)-6-fluoro-5-(trifluoromethyl)-[2,3′-bipyridin]-4′-yl)amino)-1-methylcyclohexan-1-ol] |  |  |  |  |  |  |  |  |  |  | 19.7 | 157 | 2.2 | 20.3 | 129 | > 10000 | 5.5 | 10 | 16.2 | 41.5
5 | C[C@]1(O)CC[C@@H](Nc2cc(Nc3ccnc(-c4cnn(S(=O)(=O)C5CC5)c4)n3)ncc2-c2cc(N3CCOCC3)ccn2)CC1 [Example 48, (1s,4s)-4-((6′-((2-(1-(Cyclopropylsulfonyl)-1H-pyrazol-4-yl)pyrimidin-4-yl)amino)-4-morpholino-[2,3′-bipyridin]-4′-yl)amino)-1-methylcyclohexan-1-ol] | 83.3 | 14.1 | 2.1 | 0.3 | > 10000 | 24.7 | 0.6 | 0.5 | 5.8 |  |  |  |  |  |  |  |  |  |  | 
6 | Cc1cc(-c2cnc(Nc3ccnc(-c4cnn(S(=O)(=O)C5CC5)c4)n3)cc2N[C@H]2CC[C@@](C)(O)CC2)nnc1C [Example 50, (1s,4s)-4-((2-((2-(1-(Cyclopropylsulfonyl)-1H-pyrazol-4-yl)pyrimidin-4-yl)amino)-5-(5,6-dimethylpyridazin-3-yl)pyridin-4-yl)amino)-1-methylcyclohexan-1-ol] | 2.2 | 0.4 | 0.1 | 0.1 | > 10000 |  | 0.2 | 0.3 |  | 0.5 |  |  |  |  |  |  |  |  |  | 
7 | C[C@]1(O)CC[C@@H](Nc2cc(Nc3ccnc(-c4cnn(S(=O)(=O)C5CC5)c4)n3)ncc2-c2cnc(N3CCOCC3)cn2)CC1 [Example 44, (1s,4s)-4-((2-((2-(1-(Cyclopropylsulfonyl)-1H-pyrazol-4-yl)pyrimidin-4-yl)amino)-5-(5-morpholinopyrazin-2-yl)pyridin-4-yl)amino)-1-methylcyclohexan-1-ol] | 7.1 |  | 0.6 |  | > 10000 |  | 0.6 |  | 0.8 |  |  |  |  |  |  |  |  |  |  | 
8 | C[C@]1(O)CC[C@@H](Nc2cc(Nc3ccnc(-c4cnn(S(=O)(=O)C5CC5)c4)n3)ncc2-c2ccc(F)cn2)CC1 [Example 6, (1s,4s)-4-((6′-((2-(1-(Cyclopropylsulfonyl)-1H-pyrazol-4-yl)pyrimidin-4-yl)amino)-5-fluoro-[2,3′-bipyridin]-4′-yl)amino)-1-methylcyclohexan-1-ol] | 6.5 | 0.3 | 0.1 |  | > 10000 |  | 0.1 | 0.2 | 0.4 | 0.2 |  |  |  |  |  |  |  |  |  | 
9 | C[C@]1(O)CC[C@@H](Nc2cc(Nc3ccnc(-c4cnn(S(=O)(=O)C5CC5)c4)n3)ncc2-c2ncccc2OCC(F)F)CC1 [Example 334, (1s,4s)-4-((6′-((2-(1-(Cyclopropylsulfonyl)-1H-pyrazol-4-yl)pyrimidin-4-yl)amino)-3-(2,2-difluoroethoxy)-[2,3′-bipyridin]-4′-yl)amino)-1-methylcyclohexan-1-ol] |  | 191 |  | 1.4 |  | 189 |  | 2.1 |  | 170 |  |  |  |  |  |  |  |  |  | 
10 | O=S(=O)(C1CC1)n1cc(-c2nccc(Nc3cc(N[C@H]4CC[C@@H](CCO)CC4)c(-c4ccc(CC(F)(F)F)cn4)cn3)n2)cn1 [Example 223, 2-((1s,4s)-4-((6′-((2-(1-(Cyclopropylsulfonyl)-1H-pyrazol-4-yl)pyrimidin-4-yl)amino)-5-(2,2,2-trifluoroethyl)-[2,3′-bipyridin]-4′-yl)amino)cyclohexyl)ethan-1-ol] |  |  |  |  |  |  |  |  |  |  | 4.4 | 116 | 2.4 | 5 | 11.5 | > 10000 | 6.4 | 3.5 | 10.2 | 14.6
11 | C[C@]1(O)CC[C@@H](Nc2cc(Nc3ccnc(-c4cnn(S(=O)(=O)C5CC5)c4)n3)ncc2-c2ccc(C(=O)N3CCOCC3)cn2)CC1 [Example 284, (6′-((2-(1-(Cyclopropylsulfonyl)-1H-pyrazol-4-yl)pyrimidin-4-yl)amino)-4′-(((1s,4s)-4-hydroxy-4-methylcyclohexyl)amino)-[2,3′-bipyridin]-5-yl)(morpholino)methanone] |  |  |  |  |  |  |  |  |  |  |  | 0.4 |  | 0.2 |  | 176 |  | 0.1 |  | 0.2
